US12246034B2, “Animal feed supplement and method” (CAN TECHNOLOGIES, INC., priority 2014, dated 2025)
Read-outs that look alike come from different tables or passages of the source.

What was measured:
sows [1] = test system: sows
Experimental: A field trial was conducted on a commercial farm in Denmark with 650 highly productive Danbred sows (Landrace x Yorkshire) inseminated with a pure line Duroc boar, between Nov. 17, 2014 and Jan. 16, 2015. A total of 139 sows (total number before analyzes) were included in the trial, divided over 3 subsequent sow groups farrowing over a time span of 6 weeks. For all analyzes SAS software (version 9.3, SAS Institute Inc., Cary, N.C.) was used. Sows received a dry meal transition feed (from gestation to lactation), fed from day 111 of gestation till day 5 of lactation, and were allocated to one of the two treatment groups based on parity. […] The total amount of calcium was equal between both experimental treatments. Number born alive (NBA), stillborn and mummies, litter birth weight, as well as back fat of the sows before farrowing (day 110 of gestation) and at weaning (day 24 of lactation) were measured. Litter weights at 24 hours and 3 days after birth were measured as well. On day 3 after birth blood samples were taken from 6 piglets (2 biggest, 2 medium and 2 smallest) from 65 litters of their tails when they were cut and analyzed on immunoglobulin G (IgG) concentration. Placentas of the sows were collected after the farrowing process was finished, stored in freezers and afterwards scored on redness for an indication of the vascularization of these placentas.

sows [2] = details: for Probability of a higher Vitality score: scored within 30 seconds after birth; for Average weight at weaning: piglets
Experimental: A trial was conducted at the Sterksel Research farm in the Netherlands (part of Wageningen University Research). A total of 207 sows were used in the trial allocated based on parity over 6 treatments (n=34). […] Calcium levels were the same in all diets.
(§1) Until farrowing, sows received a fixed amount of feed (3.25 kg from day 107-113 and 2.7 kg/sow/day from day 113 till farrowing). During lactation the sows were fed the diets according to a step-up feeding schedule applied (increasing with 0.5 kg/sow/day) the same over the 6 treatments aiming at a peak intake of 7.5 kg/sow/day. Piglets were weaned from the sow at 27 days of age. Performance of sows (e.g. weight, backfat, piglets born alive, stillborn piglets, mortality of piglets) and piglets (e.g. weight at birth, after 48 hours and weaning) was measured on all sows and litters. A subset of sows (19-20 per treatment) was examined more in detail to get insight in the possible mode of action of nitrate. On this subset, blood samples were collected within 4 minutes after birth from 2 piglets out of every 4 piglets born. Blood gasses of umbilical cord blood were analyzed using the i-STAT handheld (Abbott). Vitality of piglets was scored within 30 seconds after birth according to Baxter et al. (2008) with 1 being the lowest and 4 being the highest score for vitality.

[3] = for pCO2 - Measured value / pH / pO2 - Measured value: umbilical cord blood piglets
From the text: as §1

[4] = 0.03% nitrate in lactation diet
[5] = 0.06% nitrate in lactation diet
[6] = 0.09% nitrate in lactation diet
[7] = 0.12% nitrate in lactation diet
[8] = 0.15% nitrate in lactation diet
[9] = across 0.03-0.15% nitrate in feed
[10] = across 0.03-0.15% nitrate in lactation diet
[11] = across 0.03-0.15% nitrate, P<0.05

O=[N+]([O-])O [Nitrate, nitrate]
NBA (Number Born Alive) (sows [1]; 0.1% Bolifor CNF in transition feed, LS Means ± SEM): increased | NBD (Number Born Death), stillborn piglets (sows [1]; 0.1% Bolifor CNF in transition feed, log transformed, back-transformed to absolute values): decreased | Colostrum, CI (Colostrum Intake) (sows [1]; 0.1% Bolifor CNF, calculated colostrum intake): No differences were found | Aver. birth weight born alive pigs (sows [2]; [4]): 1308 grams | Average livability % (sows [2]; [4]): 76.1% | Average mortality % (sows [2]; [4]): 16.5% | Average piglet weight after 48 hours (sows [2]; [4]): 1.611 kg | Probability born alive (sows [2]; [4]): 0.95 | Probability livability (sows [2]; [4]): 0.85 | Probability mortality (sows [2]; [4]): 0.10 | Probability weaned (sows [2]; [4]): 0.91 | Total born (sows [2]; [4]): 16.8 | Total born alive (sows [2]; [4]): 15.2 | Total born mummified (sows [2]; [4]): 0.6 | Total still born (sows [2]; [4]): 1.6 | Total weaned (sows [2]; [4]): 12.3 | total birth weight litter life born piglets (sows [2]; [4]): 19.5 kg | total litter weight weaning (sows [2]; [4]): 91.8 kg | Probability of a higher Vitality score (sows [2]; [4]): 0.70 | Aver. birth weight born alive pigs (sows [2]; [5]): 1320 grams | Average livability % (sows [2]; [5]): 78.3% | Average mortality % (sows [2]; [5]): 16.2% | Average piglet weight after 48 hours (sows [2]; [5]): 1.598 kg | Probability born alive (sows [2]; [5]): 0.97 | Probability livability (sows [2]; [5]): 0.86 | Probability mortality (sows [2]; [5]): 0.10 | Probability weaned (sows [2]; [5]): 0.91 | Total born (sows [2]; [5]): 16.8 | Total born alive (sows [2]; [5]): 15.7 | Total born mummified (sows [2]; [5]): 0.7 | Total still born (sows [2]; [5]): 1.1 | Total weaned (sows [2]; [5]): 12.4 | total birth weight litter life born piglets (sows [2]; [5]): 20.3 kg | total litter weight weaning (sows [2]; [5]): 91.8 kg | Probability of a higher Vitality score (sows [2]; [5]): 0.74 | Aver. birth weight born alive pigs (sows [2]; [6]): 1329 grams | Average livability % (sows [2]; [6]): 81.3% | Average mortality % (sows [2]; [6]): 12.7% | Average piglet weight after 48 hours (sows [2]; [6]): 1.621 kg | Probability livability (sows [2]; [6]): 0.89 | Probability mortality (sows [2]; [6]): 0.07 | Probability weaned (sows [2]; [6]): 0.94 | Total born (sows [2]; [6]): 16.1 | Total born mummified (sows [2]; [6]): 0.5 | Total still born (sows [2]; [6]): 1.2 | total birth weight litter life born piglets (sows [2]; [6]): 20.2 kg | total litter weight weaning (sows [2]; [6]): 96.9 kg | Probability of a higher Vitality score (sows [2]; [6]): 0.80 | Aver. birth weight born alive pigs (sows [2]; [7]): 1326 grams | Average livability % (sows [2]; [7]): 80.0% | Average mortality % (sows [2]; [7]): 14.0% | Average piglet weight after 48 hours (sows [2]; [7]): 1.640 kg | Probability born alive (sows [2]; [7]): 0.96 | Probability livability (sows [2]; [7]): 0.88 | Probability mortality (sows [2]; [7]): 0.08 | Probability weaned (sows [2]; [7]): 0.93 | Total born (sows [2]; [7]): 17.1 | Total born alive (sows [2]; [7]): 15.8 | Total born mummified (sows [2]; [7]): 0.5 | Total still born (sows [2]; [7]): 1.3 | Total weaned (sows [2]; [7]): 13.0 | total birth weight litter life born piglets (sows [2]; [7]): 20.8 kg | total litter weight weaning (sows [2]; [7]): 98.6 kg | Probability of a higher Vitality score (sows [2]; [7]): 0.78 | Aver. birth weight born alive pigs (sows [2]; [8]): 1355 grams | Average livability % (sows [2]; [8]): 79.0% | Average mortality % (sows [2]; [8]): 14.8% | Average piglet weight after 48 hours (sows [2]; [8]): 1.692 kg | Probability born alive (sows [2]; [8]): 0.96 | Probability livability (sows [2]; [8]): 0.87 | Probability mortality (sows [2]; [8]): 0.09 | Probability weaned (sows [2]; [8]): 0.92 | Total born (sows [2]; [8]): 16.6 | Total born alive (sows [2]; [8]): 15.3 | Total born mummified (sows [2]; [8]): 0.3 | Total still born (sows [2]; [8]): 1.3 | Total weaned (sows [2]; [8]): 12.6 | total birth weight litter life born piglets (sows [2]; [8]): 21.0 kg | total litter weight weaning (sows [2]; [8]): 96.8 kg | Probability of a higher Vitality score (sows [2]; [8]): 0.79 | Total litter weight at weaning on increasing nitrate addition (sows [2]; [9]): significantly (P<0.05) improved | Vitality score of the piglets on increasing nitrate addition (sows [2]; [9]): significantly (P<0.05) improved | livability, effect of higher nitrate levels (sows [2]; [10]): increase | mortality, effect of higher nitrate levels (sows [2]; [10]): tended to lower | weaned piglets per litter, effect of higher nitrate levels (sows [2]; [10]): more | average piglet birth weight with increasing nitrate levels (sows [2]; [11]): higher | average piglet weight at 48 h with increasing nitrate levels (sows [2]; [11]): higher | total liter birth weight with increasing nitrate levels (sows [2]; [11]): higher | Probability of weaned piglets with increasing nitrate inclusion (sows [2]; across 0.03-0.15% nitrate, P<0.10): improved | Probability born alive (sows [2]; in vivo): 0.96 | Total born alive (sows [2]; in vivo): 14.9 | Total weaned (sows [2]; in vivo): 12.7 | Average weight at weaning (sows [2]; [4]): 7.439 kg | Average weight at weaning (sows [2]; [5]): 7.321 kg | Average weight at weaning (sows [2]; [6]): 7.472 kg | Average weight at weaning (sows [2]; [7]): 7.550 kg | Average weight at weaning (sows [2]; [8]): 7.608 kg | pCO2 - Measured value ([3]; 0.03% nitrate in sow diet): 34.1 mmHg | pH ([3]; 0.03% nitrate in sow diet): 7.5 | pO2 - Measured value ([3]; 0.03% nitrate in sow diet): 33.8 mmHg | pCO2 - Measured value ([3]; 0.06% nitrate in sow diet): 34.5 mmHg | pH ([3]; 0.06% nitrate in sow diet): 7.5 | pO2 - Measured value ([3]; 0.06% nitrate in sow diet): 35.4 mmHg | pCO2 - Measured value ([3]; 0.09% nitrate in sow diet): 34.9 mmHg | pH ([3]; 0.09% nitrate in sow diet): 7.5 | pO2 - Measured value ([3]; 0.09% nitrate in sow diet): 34.5 mmHg | pCO2 - Measured value ([3]; 0.12% nitrate in sow diet): 34.5 mmHg | pH ([3]; 0.12% nitrate in sow diet): 7.5 | pO2 - Measured value ([3]; 0.12% nitrate in sow diet): 35.6 mmHg | pCO2 - Measured value ([3]; 0.15% nitrate in sow diet): 34.8 mmHg | pH ([3]; 0.15% nitrate in sow diet): 7.5 | pO2 - Measured value ([3]; 0.15% nitrate in sow diet): 35.3 mmHg | pO2 values with increasing nitrate addition ([3]; umbilical cord blood, across 0.03-0.15% nitrate): linearly improved
